Results published in PubChem BioAssay AID1919009 (Molecular Pharmacology Branch, DTP, NCI, 2023).

Test system: K24384-001-R-PDC complex spheroid growth
Assay: Anticancer human tumor K24384-001-R-PDC patient-derived pancreatic adenocarcinoma cell line growth inhibition [AhR]
Settings: for IC50: curve of first compound; for viability, T/C: stronger effect = lower value
How it was run: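 Spheroids combined tumor cells with HUVEC endothelial cells and human MSCs as stroma. AhR antagonists were paired with standard or investigational drugs, each dosed in half-log steps down from near clinical Cmax, or from 10 microM where Cmax was unknown.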
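Wherever viability, T/C is given: percent of DMSO vehicle-treated spheroid viability set as 100%.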

In the case of `Cn1ncnc1C1c2n[nH]c(=O)c3cc(F)cc(c23)NC1c1ccc(F)cc1` (stereo not given) + Cc1cncc(-c2nc(NCCc3c[nH]c4ccccc34)c3ncn(C(C)C)c3n2)c1, the IC50 (second compound 0.1 µM) is reported as over 100 nM, the IC50 (second compound 0.316 µM) is reported as over 100 nM and the IC50 (second compound 1 µM) is reported as over 100 nM. It also gave an IC50 (second compound 3.16 µM) of over 100 nM, an IC50 (second compound 10 µM) of under 0.316 nM and a viability, T/C (second compound 0.1 µM, first compound 0.000316 µM) of 94.1%. It also gave a viability, T/C (second compound 0.1 µM, first compound 0.001 µM) of 93.8%, a viability, T/C (second compound 0.1 µM, first compound 0.00316 µM) of 99.8% and a viability, T/C (second compound 0.1 µM, first compound 0.01 µM) of 107%. The viability, T/C (second compound 0.1 µM, first compound 0.0316 µM) was 94.7%, the viability, T/C (second compound 0.1 µM, first compound 0.1 µM) was 76.3% and the viability, T/C (second compound 0.316 µM, first compound 0.000316 µM) was 98.1%. For the same molecule, the viability, T/C (second compound 0.316 µM, first compound 0.001 µM) was 108%, the viability, T/C (second compound 0.316 µM, first compound 0.00316 µM) was 104% and the viability, T/C (second compound 0.316 µM, first compound 0.01 µM) was 92.2%. For the same molecule, the viability, T/C (second compound 0.316 µM, first compound 0.0316 µM) was 99.4%, the viability, T/C (second compound 0.316 µM, first compound 0.1 µM) was 71.8% and the viability, T/C (second compound 1 µM, first compound 0.000316 µM) was 104%. For the same molecule, the viability, T/C (second compound 1 µM, first compound 0.001 µM) was 110%, the viability, T/C (second compound 1 µM, first compound 0.00316 µM) was 105% and the viability, T/C (second compound 1 µM, first compound 0.01 µM) was 101%. For the same molecule, the viability, T/C (second compound 1 µM, first compound 0.0316 µM) was 74.3%, the viability, T/C (second compound 1 µM, first compound 0.1 µM) was 66.8% and the viability, T/C (second compound 3.16 µM, first compound 0.000316 µM) was 101%. It also gave a viability, T/C (second compound 3.16 µM, first compound 0.001 µM) of 86.7%, a viability, T/C (second compound 3.16 µM, first compound 0.00316 µM) of 104% and a viability, T/C (second compound 3.16 µM, first compound 0.01 µM) of 64.8%. The viability, T/C (second compound 3.16 µM, first compound 0.0316 µM) was 69.8%, the viability, T/C (second compound 3.16 µM, first compound 0.1 µM) was 71.5% and the viability, T/C (second compound 10 µM, first compound 0.000316 µM) was 15.3%. It also gave a viability, T/C (second compound 10 µM, first compound 0.001 µM) of 12%, a viability, T/C (second compound 10 µM, first compound 0.00316 µM) of 14.2% and a viability, T/C (second compound 10 µM, first compound 0.01 µM) of 11.5%. The viability, T/C (second compound 10 µM, first compound 0.0316 µM) was 12.1% and the viability, T/C (second compound 10 µM, first compound 0.1 µM) was 14.5%.
